# Measurements as given in patent US10253004B2, “Indanylaminopyrazinylcyclopropanecarboxylic acids, pharmaceutical compositions and uses thereof” (Boehringer Ingelheim International GmbH, priority 2017, dated 2019).
# Biological target: human GPR40 receptor (Homo sapiens (Human), UniProt O14842)
# Test: IP1 accumulation measurements using the IPOne assay system
# Assay type: cell-based
# Conditions: 1321N1 cells stably expressing human GPR40; IP1 accumulation; read-out: EC50
# Protocol: IP1 accumulation measurements using the IPOne assay system—1321N1 cells stably expressing human GPR40 receptor (Euroscreen, Belgium) are seeded 24 h before the assay in white 384-well plates in culture medium containing 10% FCS, 1% Na-Pyruvate and 400 μg/mL G418. IP1 is assayed according to the manufacturer's description (Cisbio Bioassays, France). In brief, the assay is started by substitution of the culture medium by stimulation buffer (Hepes 10 mM, CaCl2 1 mM, MgCl2 0.5 mM, KCl 4.2 mM, NaCl 146 mM, glucose 5.5 mM and LiCl 50 mM, pH 7.4). Cells are stimulated for 1 h at 37° C., 5% CO2 by addition of the compounds that are diluted in stimulation buffer containing LiCl. Assays are stopped by adding HTRF-conjugates (IP1-d2 and Anti-IP1 cryptate Tb) and lysis buffer, provided by the manufacturer. After an incubation time of 1 h at room temperature plates are measured using an EnVision™, Perkin Elmer. The obtained fluorescence ratios at 665/615 […] are then used to calculate the pEC50 values using Assay Explorer 3.3 Software (Accelrys, Inc.) by interpolation using an IP1 reference curve and subsequent sigmoidal curve fitting allowing for a variable hill slope.
# Sequence of human GPR40 receptor (O14842 whole entry): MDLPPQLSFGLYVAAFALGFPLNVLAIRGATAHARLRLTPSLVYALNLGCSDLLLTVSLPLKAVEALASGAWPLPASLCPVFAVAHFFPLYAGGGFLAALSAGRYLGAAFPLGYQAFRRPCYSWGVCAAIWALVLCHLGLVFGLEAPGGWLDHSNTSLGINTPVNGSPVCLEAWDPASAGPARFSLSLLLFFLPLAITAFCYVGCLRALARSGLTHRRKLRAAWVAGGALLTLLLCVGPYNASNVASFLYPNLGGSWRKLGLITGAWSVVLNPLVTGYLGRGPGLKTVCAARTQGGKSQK
row,SMILES,EC50 [nM]
1,Cc1cc(-c2cc(=O)n(C)cn2)cc(C)c1-c1ccc(F)c2c1CC[C@H]2Nc1cnc([C@H]2C[C@@H]2C(=O)O)cn1 [Example 11],6
2,Cc1cc(-c2ccnn2C)cc(C)c1-c1ccc(F)c2c1CC[C@H]2Nc1cnc([C@H]2C[C@@H]2C(=O)O)cn1 [Example 36],12
3,Cc1cc(C#N)cc(C)c1-c1ccc(F)c2c1CC[C@H]2Nc1cnc([C@H]2C[C@@H]2C(=O)O)cn1 [Example 51],9
4,Cc1cccc(C)c1-c1ccc(F)c2c1CC[C@H]2Nc1cnc([C@H]2C[C@@H]2C(=O)O)cn1 [Example 15],7
5,Cc1cc(OCC2(O)CCSCC2)cc(C)c1-c1ccc(F)c2c1CC[C@H]2Nc1cnc([C@H]2C[C@@H]2C(=O)O)cn1 [Example 52],10
6,"Cc1cc(OCCCS(C)(=O)=O)cc(C)c1-c1ccc(F)c2c1CC[C@H]2Nc1cnc([C@@H]2C[C@H]2C(=O)O)cn1 [Example 5, (1R,2R)-2-(5-{(R)-7-Fluoro-4-[4-(3-methanesulfonyl-propoxy)-2,6-dimethyl-phenyl]-indan-1-ylamino}-pyrazin-2-yl)-cyclopropanecarboxylic acid]",519
7,Cc1cc(OCC2(O)CCS(=O)(=O)CC2)cc(C)c1-c1ccc(F)c2c1CC[C@H]2Nc1cnc([C@H]2C[C@@H]2C(=O)O)cn1 [Example 12],14
8,COc1cc(OC)c(F)c(-c2ccc(F)c3c2CC[C@H]3Nc2cnc([C@H]3C[C@@H]3C(=O)O)cn2)c1F [Example 37],81
9,Cc1cc(C(N)=O)cc(C)c1-c1ccc(F)c2c1CC[C@H]2Nc1cnc([C@H]2C[C@@H]2C(=O)O)cn1 [Example 10],24
10,Cc1cc(C(=O)N(C)C)cc(C)c1-c1ccc(F)c2c1CC[C@H]2Nc1cnc([C@H]2C[C@@H]2C(=O)O)cn1 [Example 20],75
11,Cc1cnc(-c2cc(C)c(-c3ccc(F)c4c3CC[C@H]4Nc3cnc([C@H]4C[C@@H]4C(=O)O)cn3)c(C)c2)nc1 [Example 38],4
12,Cc1cc(C(=O)O)cc(C)c1-c1ccc(F)c2c1CC[C@H]2Nc1cnc([C@H]2C[C@@H]2C(=O)O)cn1 [Example 14],355
13,O=C(O)[C@H]1C[C@@H]1c1cnc(N[C@@H]2CCc3c(-c4c(Cl)cccc4Cl)ccc(F)c32)cn1 [Example 25],7
14,Cc1cc(-c2cnccn2)cc(C)c1-c1ccc(F)c2c1CC[C@H]2Nc1cnc([C@H]2C[C@@H]2C(=O)O)cn1 [Example 54],4
15,"Cc1cc(-c2nnn(C)n2)cc(C)c1-c1cccc2c1CC[C@H]2Nc1cnc([C@H]2C[C@@H]2C(=O)O)cn1 [Example 6, (1S,2S)-2-(5-{(R)-4-[2,6-Dimethyl-4-(2-methyl-2H-tetrazol-5-yl)-phenyl]-indan-1-ylamino}-pyrazin-2-yl)-cyclopropanecarboxylic acid]",3
16,CCc1cccc(CC)c1-c1ccc(F)c2c1CC[C@H]2Nc1cnc([C@H]2C[C@@H]2C(=O)O)cn1 [Example 49],4
17,Cc1cc(OCC2(C)COC2)cc(C)c1-c1ccc(F)c2c1CC[C@H]2Nc1cnc([C@H]2C[C@@H]2C(=O)O)cn1 [Example 32],7
18,CC(C)c1ccccc1-c1ccc(F)c2c1CC[C@H]2Nc1cnc([C@H]2C[C@@H]2C(=O)O)cn1 [Example 40],16
19,Cc1cc(OCC2CCOC2)cc(C)c1-c1ccc(F)c2c1CC[C@H]2Nc1cnc([C@H]2C[C@@H]2C(=O)O)cn1 (stereo partly shown) [Example 43],18
20,O=C(O)[C@H]1C[C@@H]1c1cnc(N[C@@H]2CCc3c(-c4ccc(-c5cnco5)cc4)ccc(F)c32)cn1 [Example 23],144

row,SMILES,EC50 [nM]
1,Cc1cc(OCC2(O)CCOCC2)cc(C)c1-c1ccc(F)c2c1CC[C@H]2Nc1cnc([C@H]2C[C@@H]2C(=O)O)cn1 [Example 41],11
2,Cc1cc(OCC(=O)O)cc(C)c1-c1ccc(F)c2c1CC[C@H]2Nc1cnc([C@H]2C[C@@H]2C(=O)O)cn1 [Example 48],839
3,N#CC1(c2ccccc2-c2ccc(F)c3c2CC[C@H]3Nc2cnc([C@H]3C[C@@H]3C(=O)O)cn2)CC1 [Example 26],367
4,Cc1cc(-c2ccc(=O)n(C)c2)cc(C)c1-c1ccc(F)c2c1CC[C@H]2Nc1cnc([C@H]2C[C@@H]2C(=O)O)cn1 [Example 33],6
5,O=C(O)[C@H]1C[C@@H]1c1cnc(N[C@@H]2CCc3c(-c4c(F)cc(OC5CC5)cc4F)ccc(F)c32)cn1 [Example 19],56
6,Cc1cc(-c2nnnn2CC(C)(C)O)cc(C)c1-c1ccc(F)c2c1CC[C@H]2Nc1cnc([C@H]2C[C@@H]2C(=O)O)cn1 [Example 39],3
7,"COc1ccc(-c2cccc3c2CC[C@H]3Nc2cnc([C@H]3C[C@@H]3C(=O)O)cn2)cc1F [Example 8, (1S,2S)-2-{5-[(R)-4-(3-Fluoro-4-methoxy-phenyl)-indan-1-ylamino]-pyrazin-2-yl}-cyclopropanecarboxylic acid]",163
8,Nc1cc(F)c(-c2ccc(F)c3c2CC[C@H]3Nc2cnc([C@H]3C[C@@H]3C(=O)O)cn2)c(F)c1 [Example 18],150
9,Cc1cc(O[C@@H]2CCOC2)cc(C)c1-c1ccc(F)c2c1CC[C@H]2Nc1cnc([C@H]2C[C@@H]2C(=O)O)cn1 [Example 27],13
10,Cc1ccc(Cl)c(-c2ccc(F)c3c2CC[C@H]3Nc2cnc([C@H]3C[C@@H]3C(=O)O)cn2)c1Cl [Example 21],4
11,COc1cc(C)c(-c2ccc(F)c3c2CC[C@H]3Nc2cnc([C@H]3C[C@@H]3C(=O)O)cn2)c(C)c1 [Example 22],8
12,Cc1cc(CO)cc(C)c1-c1ccc(F)c2c1CC[C@H]2Nc1cnc([C@H]2C[C@@H]2C(=O)O)cn1 [Example 30],20
13,COc1cc(-c2cc(C)c(-c3ccc(F)c4c3CC[C@H]4Nc3cnc([C@H]4C[C@@H]4C(=O)O)cn3)c(C)c2)ccn1 [Example 42],5
14,"Cc1cc(OCCC(C)(C)O)cc(C)c1-c1ccc(F)c2c1CC[C@H]2Nc1cnc(C2C[C@@H]2C(=O)O)cn1 (stereo partly drawn) [Example 1, trans-2-(5-{(R)-7-Fluoro-4-[4-(3-hydroxy-3-methyl-butoxy)-2,6-dimethyl-phenyl]-indan-1-ylamino}-pyrazin-2-yl)-cyclopropanecarboxylic acid]",7
15,CNC(=O)c1cc(C)c(-c2ccc(F)c3c2CC[C@H]3Nc2cnc([C@H]3C[C@@H]3C(=O)O)cn2)c(C)c1 [Example 45],23
16,COc1cc(F)c(-c2ccc(F)c3c2CC[C@H]3Nc2cnc([C@H]3C[C@@H]3C(=O)O)cn2)c(F)c1 [Example 44],90
17,O=C(O)[C@H]1C[C@@H]1c1cnc(N[C@@H]2CCc3c(-c4c(F)cc(F)cc4F)ccc(F)c32)cn1 [Example 50],74
18,O=C(O)[C@H]1C[C@@H]1c1cnc(N[C@@H]2CCc3c(-c4ccccc4C(F)(F)F)ccc(F)c32)cn1 [Example 17],23
19,"Cc1cc(OCCC(C)(C)O)cc(C)c1-c1ccc(F)c2c1CC[C@H]2Nc1cnc([C@@H]2C[C@H]2C(=O)O)cn1 [Example 3, (1R,2R)-2-(5-{(R)-7-Fluoro-4-[4-(3-hydroxy-3-methyl-butoxy)-2,6-dimethyl-phenyl]-indan-1-ylamino}-pyrazin-2-yl)-cyclopropanecarboxylic acid]",164
20,Cc1cc(OCC2CCOCC2)cc(C)c1-c1ccc(F)c2c1CC[C@H]2Nc1cnc([C@H]2C[C@@H]2C(=O)O)cn1 [Example 13],4
